# Tests used:
# [1] = tested on: intraocular pressure (IOP) of ocular normotensive rabbits; assay: IOP lowering effect in ocular normotensive rabbits (Example 8; Example 9 Phase 1); type: in vivo, New Zealand White Rabbits (Oryctolagus cuniculus); conditions: for OD IOP Mean: 50 μL/eye once, treated right eye, Day 1
# Excerpt: This example illustrates the procedures and results of the intraocular pressure (IOP) lowering effect of compound 18 as compared to Latanoprostene bunod and latanoprost at different concentrations in ocular normotensive rabbits.
# Forty (40) male New Zealand white rabbits were divided into 4 groups with 10 animals per group. Animals were then randomly assigned to groups based on body weight.
# Latanoprostene bunod ophthalmic solution (LBN, 0.024%) and latanoprost eye drops (0.005%) were used as positive controls and dosed with the same volumes into the right eyes of the tested animals in groups 1 and 2 once.
# Compound 18 was instilled into the right eyes of the tested animals in groups 3 (10 mg/mL) and 4 (20 mg/mL) at 50 μL per eye once.
# All left eyes of the tested animals in each group were dosed with vehicle solution at 50 μL per eye.
# The intraocular pressures (IOPs) were measured once at pre-dose and then once at 1, 2, 4, 6, 8, and 10 hours post dose for each group of animals. FIGS. 1 to 4 show the results from the IOP lowering studies for all four tested groups.
# Phase 1: To confirm the IOP lowering effect of test article at different concentrations in ocular normotensive rabbits. Compound 18 was instilled into right eyes of animals in groups 3 and 4, 50 μL/eye, once. 0.024% latanoprostene bunod ophthalmic solution (LBN) and 0.005% latanoprost eye drops were served as positive control and be dosed with same volume into right eyes of groups 1 and 2 animals once. All left eyes of animals in each group were dosed with vehicle once, 50 μL/eye. IOPs was measured once at pre-dose and once at 1, 2, 4, 6, 8, 10 hours post dose. […]
# (§1) Delivery Method: Drawed 50 μL of the articles with a pipette, pulled out the lower eyelid of the animal, dropped the article into the conjunctiva sac, and gently closed the upper and lower eyelids for a few times.
# (§2) Species/Strain: New Zealand White Rabbits (Oryctolagus cuniculus). The New Zealand White Rabbit was used in this study. This is commonly used specie for non-clinical studies of ophthalmic formulations, for which there is a large historical database, and the relative large cornea size is suitable for topical operations.
# (§3) Restrained the animal, made the testing eye perpendicular to the probe of the TonoVet tonometer, measured the IOP for at least three times until the values are stable. The mean of the last three stable values were calculated as the final IOP value.
# IOP Measurement in Ocular Normotensive Rabbits: IOP was measured at pre-dose and once at 1, 2, 4, 6, 8, 10 hours post dose in study phase 1.
# [2] = tested on: intraocular pressure (IOP) of ocular hypertensive rabbits; assay: IOP lowering effect in ocular hypertensive rabbits (Example 9 Phase 2); type: in vivo; conditions: for Reduction ratio of IOP / OD IOP Mean: 50 μL/eye t.i.d.; for Reduction ratio of IOP: treated right vs vehicle left eye; for IOP compared with the vehicle treated eyes: p≤0.05; for OD IOP Mean: treated right eye, Day 10/11
# Description: Phase 2: To confirm the IOP lowering effect of test article at different concentrations in ocular hypertensive rabbits. Modeling was induced by intracameral injection of elastic substance in both eyes, once. Then, positive control articles/test article was instilled into right eyes of animals, 50 μL/eye, once at 5-15 minutes, 3 and 6 hours post modeling, respectively. All left eyes of animals in each group were dosed with vehicle, 50 μL/eye, once at 5-15 minutes, 3 and 6 hours post modeling, respectively. IOPs was measured at pre-modeling, 1, 2, 4, 6, 8, and 10 hours post first dose.
# For further analysis of the IOP reduction effect, the IOP reduction ratio was calculated using the difference between the TA/PA treated and vehicle treated eyes at each time points post first dosing. The results were tabulated below:
# Animals were sedated by Ketamine (30˜50 mg/kg) and anesthetized by Xylazine (5˜10 mg/kg), intramuscularly. Disinfected the conjunctival sac by washing with 5% povidone iodine, and then washed the conjunctival sac with saline. Fixed the eyeball with forceps, then inserted needle from the temporal limbus horizontally, avoided damaging the corneal endothelial and iris. Held the syringe still and injected the Medical Sodium Hyaluronate Gel slowly into the anterior chamber, 100 μl/eye, waited for at least 10 seconds, then pulled out the needle slowly. Pressed the injection spot immediately with swab for at least 3 minutes, blocked the injection spot with one drop of tissue adhesive.
# For Phase 2, 50 μL of 1% and 2% Compound 18, 0.024% latanoprostene bunod ophthalmic solution and 0.005% latanoprost eye drops were instilled into the right eyes and the same volume of Vehicle (Gel-blank) into the left eyes in Group 5 to Group 8 of Ocular Hypertensive Rabbits, 50 μL/eye, three times. The first day of dosing in phase 1 was designated as Day 1.
# as §1, §2, §3
# IOP Measurement in Ocular Hypertensive Rabbits: IOP was measured at pre-modeling, and once at 1, 2, 4, 6, 8, and 10 hours post first daily dose in study phase 2.
compound,measurement,setting,value
"CCCc1nn(C)c2c(=O)[nH]c(-c3cc(S(=O)(=O)N4CC(CCCO[N+](=O)[O-])C4)ccc3OCC)nc12 [Compound 18, 3-(1-((4-ethoxy-3-(1-methyl-7-oxo-3-propyl-6,7-dihydro-1H-pyrazolo[4,3-d]pyrimidin-5-yl)phenyl)sulfonyl)azetidin-3-yl)propyl nitrate]",IOP after administration,"[1]; Example 8, both 10 mg/mL and 20 mg/mL doses",significantly lower the IOP
same,IOP compared with the vehicle treated eyes,"[1]; Phase 1, 10 mg/mL, at 1, 2, 4 h post dosing, p≤0.05",significant decreased IOPs
same,IOP compared with the vehicle treated eyes,"[1]; Phase 1, 20 mg/mL, at 1, 2, 4, 8, 10 h post dosing (8, 10 h, p≤0.05; 1, 4 h, p≤0.01; 2 h, p≤0.001)",significant decreased IOPs
same,OD IOP Mean,"[1]; Phase 1 Group 3, 10 mg/mL (1%), 1 h post dose",12.50
same,OD IOP Mean,"[1]; Phase 1 Group 3, 10 mg/mL (1%), 2 h post dose",13.30
same,OD IOP Mean,"[1]; Phase 1 Group 3, 10 mg/mL (1%), 4 h post dose",14.17
same,OD IOP Mean,"[1]; Phase 1 Group 3, 10 mg/mL (1%), 6 h post dose",15.27
same,OD IOP Mean,"[1]; Phase 1 Group 3, 10 mg/mL (1%), 8 h post dose",15.57
same,OD IOP Mean,"[1]; Phase 1 Group 3, 10 mg/mL (1%), 10 h post dose",16.53
same,OD IOP Mean,"[1]; Phase 1 Group 4, 20 mg/mL (2%), 1 h post dose",11.47
same,OD IOP Mean,"[1]; Phase 1 Group 4, 20 mg/mL (2%), 2 h post dose",11.93
same,OD IOP Mean,"[1]; Phase 1 Group 4, 20 mg/mL (2%), 4 h post dose",13.70
same,OD IOP Mean,"[1]; Phase 1 Group 4, 20 mg/mL (2%), 6 h post dose",14.33
same,OD IOP Mean,"[1]; Phase 1 Group 4, 20 mg/mL (2%), 8 h post dose",15.20
same,OD IOP Mean,"[1]; Phase 1 Group 4, 20 mg/mL (2%), 10 h post dose",15.40
same,tolerability,"[2]; Example 9, topical instillation in rabbits",well tolerated
same,Reduction ratio of IOP,"[2]; Group 7, 10 mg/mL, 1 h post first dose",23.36%
same,Reduction ratio of IOP,"[2]; Group 7, 10 mg/mL, 2 h post first dose",35.65%
same,Reduction ratio of IOP,"[2]; Group 7, 10 mg/mL, 4 h post first dose",21.68%
same,Reduction ratio of IOP,"[2]; Group 7, 10 mg/mL, 6 h post first dose",28.06%
same,Reduction ratio of IOP,"[2]; Group 7, 10 mg/mL, 8 h post first dose",23.97%
same,Reduction ratio of IOP,"[2]; Group 7, 10 mg/mL, 10 h post first dose",21.67%
same,Reduction ratio of IOP,"[2]; Group 8, 20 mg/mL, 1 h post first dose",45.31%
same,Reduction ratio of IOP,"[2]; Group 8, 20 mg/mL, 2 h post first dose",34.59%
same,Reduction ratio of IOP,"[2]; Group 8, 20 mg/mL, 4 h post first dose",26.95%
same,Reduction ratio of IOP,"[2]; Group 8, 20 mg/mL, 6 h post first dose",18.04%
same,Reduction ratio of IOP,"[2]; Group 8, 20 mg/mL, 8 h post first dose",10.85%
same,Reduction ratio of IOP,"[2]; Group 8, 20 mg/mL, 10 h post first dose",−5.73%
same,IOP compared with the vehicle treated eyes,"[2]; Phase 2, 10 mg/mL, at 2 h post dosing",significant decreased IOPs
same,IOP compared with the vehicle treated eyes,"[2]; Phase 2, 20 mg/mL, at 1 h post dosing",significant decreased IOPs
same,OD IOP Mean,"[2]; Phase 2 Group 7, 10 mg/mL (1%), 1 h post first dose",9.19
same,OD IOP Mean,"[2]; Phase 2 Group 7, 10 mg/mL (1%), 2 h post first dose",13.80
same,OD IOP Mean,"[2]; Phase 2 Group 7, 10 mg/mL (1%), 4 h post first dose",20.47
same,OD IOP Mean,"[2]; Phase 2 Group 7, 10 mg/mL (1%), 6 h post first dose",21.53
same,OD IOP Mean,"[2]; Phase 2 Group 7, 10 mg/mL (1%), 8 h post first dose",17.82
same,OD IOP Mean,"[2]; Phase 2 Group 7, 10 mg/mL (1%), 10 h post first dose",15.22
same,OD IOP Mean,"[2]; Phase 2 Group 8, 20 mg/mL (2%), 1 h post first dose",11.74
same,OD IOP Mean,"[2]; Phase 2 Group 8, 20 mg/mL (2%), 2 h post first dose",19.67
same,OD IOP Mean,"[2]; Phase 2 Group 8, 20 mg/mL (2%), 4 h post first dose",25.57
same,OD IOP Mean,"[2]; Phase 2 Group 8, 20 mg/mL (2%), 6 h post first dose",28.93
same,OD IOP Mean,"[2]; Phase 2 Group 8, 20 mg/mL (2%), 8 h post first dose",27.40
same,OD IOP Mean,"[2]; Phase 2 Group 8, 20 mg/mL (2%), 10 h post first dose",22.63
